Measured values reported in patent publication US20100190878A1, “POLYOLEFIN RESIN COMPOSITION AND FOAM MOLDED ARTICLE” (SUMITOMO CHEMICAL COMPANY, LIMITED, priority 2008, published 2010).
Where two headings read alike, the source gives them in different places.

Test: acid dissociation constant (pKa) by conventional titration

Row | Compound | pKa | pKa (acid dissociation constant of hindered amine light stabilizer)
1 | CN1C(C)(C)CC(OC(=O)CC(C(=O)OC2CC(C)(C)N(C)C(C)(C)C2)C(CC(=O)OC2CC(C)(C)N(C)C(C)(C)C2)C(=O)OC2CC(C)(C)N(C)C(C)(C)C2)CC1(C)C [Example D-2, tetrakis(1,2,2,6,6-pentamethyl-4-piperidyl) 1,2,3,4-butanetetracarboxylate] | 8.9 | –
2 | CC1(C)CC(OC(=O)CCCCCCCCC(=O)OC2CC(C)(C)NC(C)(C)C2)CC(C)(C)N1 [Example D-3, Bis(2,2,6,6-tetramethyl-4-piperidyl) sebacate] | 9 | –
3 | CCCCCCCCON1C(C)(C)CC(OC(=O)CCCCCCCCC(=O)OC2CC(C)(C)N(OCCCCCCCC)C(C)(C)C2)CC1(C)C [Example D-4, Bis(1-octyloxy-2,2,6,6-tetramethylpiperidin-4-yl) sebacate] | 4.4 | –
4 | Condensate of N,N-bis(3-aminopropyl)ethylenediamine. 2,4-bis[N-butyl-N-(1,2,2,6,6-pentamethyl-4-pi peridyl)amino]-6-chloro-1,3,5-triazine [Example D-5] | – | 9.2
